{
  "source": "paper PMC5218480",
  "about": "(PLoS ONE, 2017)",
  "tested_on": "MV-4-11 cells",
  "experiment": "Gene expression microarray analysis (Affymetrix PrimeView) and GSEA",
  "type": "cell-based, human",
  "set-up": "RFU PODN (11730768_x_at) / Fold change /veh PODN (11730768_x_at) / RFU LINC00158 (11744669_a_at) / Fold change /veh LINC00158 (11744669_a_at) / RFU DUSP10 (11751237_a_at) / Fold change /veh DUSP10 (11751237_a_at) / RFU ID3 (11757404_x_at) / Fold change /veh ID3 (11757404_x_at) / RFU PLEKHG5 (11737974_s_at) / Fold change /veh PLEKHG5 (11737974_s_at) / RFU LRRC4B (11730491_at) / Fold change /veh LRRC4B (11730491_at) / RFU GIMAP4 (11747438_a_at) / Fold change /veh GIMAP4 (11747438_a_at) / RFU KRT8 (11758183_x_at) / Fold change /veh KRT8 (11758183_x_at) / RFU CNN1 (11734310_a_at) / Fold change /veh CNN1 (11734310_a_at) / RFU VPS37D (11726825_at) / Fold change /veh VPS37D (11726825_at) / RFU C10orf10 (11716522_x_at) / Fold change /veh C10orf10 (11716522_x_at) / RFU KIR2DL2 /// KIR2DL4 /// KIR2DL5A /// KIR2DL5B /// KIR2DS1 /// KIR2DS2 /// KIR2DS3 /// KIR2DS4 /// KIR3DL3 /// KIR3DL3 /// KIR3DS1 (11738374_at) / Fold change /veh KIR2DL2 /// KIR2DL4 /// KIR2DL5A /// KIR2DL5B /// KIR2DS1 /// KIR2DS2 /// KIR2DS3 /// KIR2DS4 /// KIR3DL3 /// KIR3DL3 /// KIR3DS1 (11738374_at) / RFU C1QL1 (11718748_at) / Fold change /veh C1QL1 (11718748_at) / RFU TMPRSS4 (11747572_a_at) / Fold change /veh TMPRSS4 (11747572_a_at) / RFU HAMP (11756126_x_at) / Fold change /veh HAMP (11756126_x_at) / RFU RNFT2 (11725882_a_at) / Fold change /veh RNFT2 (11725882_a_at) / RFU NR4A2 (11747474_a_at) / Fold change /veh NR4A2 (11747474_a_at) / RFU ABCC12 (11746883_a_at) / Fold change /veh ABCC12 (11746883_a_at) / RFU TMEM136 (11760407_x_at) / Fold change /veh TMEM136 (11760407_x_at) / RFU CLDN22 /// WWC2 (11732394_at) / Fold change /veh CLDN22 /// WWC2 (11732394_at) / RFU HLA-DPB1 (11760878_x_at) / Fold change /veh HLA-DPB1 (11760878_x_at) / RFU SPINT1 (11716480_a_at) / Fold change /veh SPINT1 (11716480_a_at) / RFU GAP43 (11754022_s_at) / Fold change /veh GAP43 (11754022_s_at) / RFU A4GNT (11735810_at) / Fold change /veh A4GNT (11735810_at) / RFU PRB3 (11715151_x_at) / Fold change /veh PRB3 (11715151_x_at) / RFU TUBB4B (11761932_at) / Fold change /veh TUBB4B (11761932_at) / RFU CAPN14 (11732068_a_at) / Fold change /veh CAPN14 (11732068_a_at) / RFU TMCC2 (11721928_a_at) / Fold change /veh TMCC2 (11721928_a_at) / RFU IRGQ (11745062_a_at) / Fold change /veh IRGQ (11745062_a_at) / RFU FAM174B (11720279_a_at) / Fold change /veh FAM174B (11720279_a_at) / RFU TMPRSS4 (11748680_a_at) / Fold change /veh TMPRSS4 (11748680_a_at) / RFU FAM212B (11763350_a_at) / Fold change /veh FAM212B (11763350_a_at) / RFU PLEKHG5 (11743358_a_at) / Fold change /veh PLEKHG5 (11743358_a_at) / RFU ZSCAN30 (11745921_a_at) / Fold change /veh ZSCAN30 (11745921_a_at) / RFU CMKLR1 (11741424_a_at) / Fold change /veh CMKLR1 (11741424_a_at) / RFU LOC101060620 /// MAPK8IP1 (11723275_at) / Fold change /veh LOC101060620 /// MAPK8IP1 (11723275_at) / RFU SPTSSB (11747773_x_at) / Fold change /veh SPTSSB (11747773_x_at) / RFU PRSS12 (11739890_at) / Fold change /veh PRSS12 (11739890_at) / RFU BIN1 (11741810_x_at) / Fold change /veh BIN1 (11741810_x_at) / RFU WNT11 (11732464_a_at) / Fold change /veh WNT11 (11732464_a_at) / RFU C10orf10 (11716521_a_at) / Fold change /veh C10orf10 (11716521_a_at) / RFU C5orf56 (11738089_at) / Fold change /veh C5orf56 (11738089_at) / RFU CYB561 (11721691_x_at) / Fold change /veh CYB561 (11721691_x_at) / RFU ANKRD19P (11752326_a_at) / Fold change /veh ANKRD19P (11752326_a_at) / RFU OR2T12 /// OR2T33 /// OR2T8 (11738714_s_at) / Fold change /veh OR2T12 /// OR2T33 /// OR2T8 (11738714_s_at) / RFU VCAN (11748164_a_at) / Fold change /veh VCAN (11748164_a_at) / RFU JSRP1 (11732532_at) / Fold change /veh JSRP1 (11732532_at) / RFU KRTAP10-11 (11738290_x_at) / Fold change /veh KRTAP10-11 (11738290_x_at) / RFU MYO3A (11730013_a_at) / Fold change /veh MYO3A (11730013_a_at) / RFU EBF3 (11725865_a_at) / Fold change /veh EBF3 (11725865_a_at) / RFU CAMK2N1 (11719241_x_at) / Fold change /veh CAMK2N1 (11719241_x_at) / RFU C5orf56 (11738088_a_at) / Fold change /veh C5orf56 (11738088_a_at) / RFU OLFML3 (11715873_a_at) / Fold change /veh OLFML3 (11715873_a_at) / RFU LOC100653217 /// NTM (11731650_a_at) / Fold change /veh LOC100653217 /// NTM (11731650_a_at) / RFU MAPK11 (11762145_a_at) / Fold change /veh MAPK11 (11762145_a_at) / RFU FIZ1 (11724087_x_at) / Fold change /veh FIZ1 (11724087_x_at) / RFU OASL (11726364_x_at) / Fold change /veh OASL (11726364_x_at) / RFU SOX15 (11748057_x_at) / Fold change /veh SOX15 (11748057_x_at) / RFU CD79A (11719716_a_at) / Fold change /veh CD79A (11719716_a_at) / RFU HIST1H1D (11736915_at) / Fold change /veh HIST1H1D (11736915_at) / RFU CASKIN2 (11723855_a_at) / Fold change /veh CASKIN2 (11723855_a_at) / RFU LOC730098 (11760151_x_at) / Fold change /veh LOC730098 (11760151_x_at) / RFU OR4N2 (11742367_at) / Fold change /veh OR4N2 (11742367_at) / RFU PRRT2 (11749266_a_at) / Fold change /veh PRRT2 (11749266_a_at) / RFU SNX32 (11753110_a_at) / Fold change /veh SNX32 (11753110_a_at) / RFU CDHR5 (11726645_a_at) / Fold change /veh CDHR5 (11726645_a_at) / RFU RCAN1 (11760418_a_at) / Fold change /veh RCAN1 (11760418_a_at) / RFU FAM167A (11723789_a_at) / Fold change /veh FAM167A (11723789_a_at) / RFU FAM26E (11764081_at) / Fold change /veh FAM26E (11764081_at) / RFU ISYNA1 (11749810_s_at) / Fold change /veh ISYNA1 (11749810_s_at) / RFU ACY1 (11761880_at) / Fold change /veh ACY1 (11761880_at) / RFU 11764098_at / Fold change /veh 11764098_at / RFU SAMD14 (11745864_x_at) / Fold change /veh SAMD14 (11745864_x_at) / RFU NPB (11741838_a_at) / Fold change /veh NPB (11741838_a_at) / RFU TMPRSS6 (11731388_a_at) / Fold change /veh TMPRSS6 (11731388_a_at) / RFU KRTAP10-2 (11738614_at) / Fold change /veh KRTAP10-2 (11738614_at) / RFU ARHGAP8 /// PRR5-ARHGAP8 (11727945_x_at) / Fold change /veh ARHGAP8 /// PRR5-ARHGAP8 (11727945_x_at) / RFU KRTAP5-7 /// NADSYN1 (11734609_at) / Fold change /veh KRTAP5-7 /// NADSYN1 (11734609_at) / RFU RASL12 (11751679_a_at) / Fold change /veh RASL12 (11751679_a_at) / RFU CDKN2B (11736163_a_at) / Fold change /veh CDKN2B (11736163_a_at) / RFU PRF1 (11729649_at) / Fold change /veh PRF1 (11729649_at) / RFU, ZNF638 /// ZNF638-IT1 / Fold change vs veh, ZNF638 /// ZNF638-IT1 / RFU, PANK3 / Fold change vs veh, PANK3 / RFU, SH3YL1 / Fold change vs veh, SH3YL1 / RFU, ZEB2 / Fold change vs veh, ZEB2 / RFU, NRIP1 / Fold change vs veh, NRIP1 / RFU, PTTG1IP / Fold change vs veh, PTTG1IP / RFU, CAPN2 / Fold change vs veh, CAPN2 / RFU, MED14 / Fold change vs veh, MED14 / RFU, SNORA58 / Fold change vs veh, SNORA58 / RFU, C1orf63 / Fold change vs veh, C1orf63 / RFU, LRRFIP1 / Fold change vs veh, LRRFIP1 / RFU, NDUFAF7 / Fold change vs veh, NDUFAF7 / RFU, SLC12A2 / Fold change vs veh, SLC12A2 / RFU, IBTK / Fold change vs veh, IBTK / RFU, ESF1 / Fold change vs veh, ESF1 / Fold change vs veh, TMEM50B / RFU, TAOK1 / Fold change vs veh, TAOK1 / RFU, ACBD3 / Fold change vs veh, ACBD3 / RFU, TMA16 / Fold change vs veh, TMA16 / RFU, RWDD3 / Fold change vs veh, RWDD3 / RFU, BCAT1 / Fold change vs veh, BCAT1 / RFU, EDEM3 / Fold change vs veh, EDEM3 / RFU, TMEM33 / Fold change vs veh, TMEM33 / RFU, WDR75 / Fold change vs veh, WDR75 / RFU, AHCTF1 / Fold change vs veh, AHCTF1 / RFU, TFRC / Fold change vs veh, TFRC / RFU, ZDHHC17 / Fold change vs veh, ZDHHC17 / RFU, NOM1 / Fold change vs veh, NOM1 / RFU, ARL8B / Fold change vs veh, ARL8B / RFU, ZBTB11 / Fold change vs veh, ZBTB11 / RFU, TAMM41 / Fold change vs veh, TAMM41 / RFU, KIAA1704 /// LOC100996395 / Fold change vs veh, KIAA1704 /// LOC100996395 / RFU, ING1 / Fold change vs veh, ING1 / RFU, TRMT61B / Fold change vs veh, TRMT61B / RFU, FUBP3 / Fold change vs veh, FUBP3 / RFU, TP53 / Fold change vs veh, TP53 / RFU, TNKS2 / Fold change vs veh, TNKS2 / RFU, ZFP14 / Fold change vs veh, ZFP14 / RFU, ACTR2 / Fold change vs veh, ACTR2 / RFU, PPP3R1 / Fold change vs veh, PPP3R1 / RFU, PIK3R1 / Fold change vs veh, PIK3R1 / RFU, HNRNPA1 / Fold change vs veh, HNRNPA1 / RFU, RNF170 / Fold change vs veh, RNF170 / RFU, ZNF28 / Fold change vs veh, ZNF28 / RFU, RNGTT / Fold change vs veh, RNGTT / RFU, OGT / Fold change vs veh, OGT / RFU, BRD1 / Fold change vs veh, BRD1 / RFU, MARS / Fold change vs veh, MARS / RFU, ZNF655 / Fold change vs veh, ZNF655 / RFU, FAHD1 / Fold change vs veh, FAHD1 / RFU, BDP1 / Fold change vs veh, BDP1 / RFU, LRRCC1 / Fold change vs veh, LRRCC1 / RFU, ARID1A / Fold change vs veh, ARID1A / RFU, ZNF146 / Fold change vs veh, ZNF146 / RFU, ZNF330 / Fold change vs veh, ZNF330 / RFU, GPN3 / Fold change vs veh, GPN3 / RFU, C9orf123 / Fold change vs veh, C9orf123 / RFU, N4BP2L2 / Fold change vs veh, N4BP2L2 / RFU, ARFIP1 / Fold change vs veh, ARFIP1 / RFU, FAM179B / Fold change vs veh, FAM179B / RFU, BCL10 / Fold change vs veh, BCL10 / RFU, UHRF1BP1L / Fold change vs veh, UHRF1BP1L / RFU, BET1 / Fold change vs veh, BET1 / RFU, CNOT2 / Fold change vs veh, CNOT2 / RFU, ZNF268 / Fold change vs veh, ZNF268 / Fold change vs veh, ZNF507 / RFU, DGCR2 / Fold change vs veh, DGCR2 / RFU, WDSUB1 / Fold change vs veh, WDSUB1 / Fold change vs veh, HSP90B1 /// MIR3652 / RFU, ADSS / Fold change vs veh, ADSS / RFU, GK / Fold change vs veh, GK / RFU, ZNF148 / Fold change vs veh, ZNF148 / RFU, TAF9 / Fold change vs veh, TAF9 / RFU, SLC1A5 / Fold change vs veh, SLC1A5 / RFU, SLMO2 / Fold change vs veh, SLMO2 / RFU, ABCC4 / Fold change vs veh, ABCC4 / RFU, LOC101060439 /// RAP1B / Fold change vs veh, LOC101060439 /// RAP1B / RFU, RFX7 / Fold change vs veh, RFX7 / RFU, GTPBP10 / Fold change vs veh, GTPBP10 / RFU, CNEP1R1 / Fold change vs veh, CNEP1R1 / RFU, BIVM-ERCC5 /// ERCC5 / Fold change vs veh, BIVM-ERCC5 /// ERCC5 / RFU, ILF3 / Fold change vs veh, ILF3 / RFU 11762660_at / Fold change /veh 11762660_at / RFU VCAN (11757783_s_at) / Fold change /veh VCAN (11757783_s_at) / RFU DDX43 (11728927_at) / Fold change /veh DDX43 (11728927_at) / RFU KRT8 (11758188_x_at) / Fold change /veh KRT8 (11758188_x_at) / RFU NKD1 (11759106_at) / Fold change /veh NKD1 (11759106_at) / RFU SRD5A1 (11742802_a_at) / Fold change /veh SRD5A1 (11742802_a_at) / RFU TPSAB1 /// TPSB2 (11721975_s_at) / Fold change /veh TPSAB1 /// TPSB2 (11721975_s_at) / RFU GSTM3 (11746129_a_at) / Fold change /veh GSTM3 (11746129_a_at) / RFU IL23R (11737362_x_at) / Fold change /veh IL23R (11737362_x_at) / RFU TMEM51 (11727254_a_at) / Fold change /veh TMEM51 (11727254_a_at) / RFU PIWIL2 (11732686_x_at) / Fold change /veh PIWIL2 (11732686_x_at) / RFU ORM1 (11744905_x_at) / Fold change /veh ORM1 (11744905_x_at) / RFU CCDC152 (11743942_at) / Fold change /veh CCDC152 (11743942_at) / RFU ECM1 (11717891_a_at) / Fold change /veh ECM1 (11717891_a_at) / RFU IL23R (11748794_a_at) / Fold change /veh IL23R (11748794_a_at) / RFU TNFAIP8L3 (11732012_x_at) / Fold change /veh TNFAIP8L3 (11732012_x_at) / RFU MBOAT4 (11741988_at) / Fold change /veh MBOAT4 (11741988_at) / RFU 11764193_at / Fold change /veh 11764193_at / RFU TMEM53 (11763286_at) / Fold change /veh TMEM53 (11763286_at) / RFU MAGEB2 (11727129_at) / Fold change /veh MAGEB2 (11727129_at) / RFU TMEM200A (11744735_a_at) / Fold change /veh TMEM200A (11744735_a_at) / RFU CCDC152 (11751479_a_at) / Fold change /veh CCDC152 (11751479_a_at) / RFU FAM211A (11726209_a_at) / Fold change /veh FAM211A (11726209_a_at) / RFU RGS16 (11746705_a_at) / Fold change /veh RGS16 (11746705_a_at) / RFU VCAN (11755009_s_at) / Fold change /veh VCAN (11755009_s_at) / RFU RHOB (11743442_s_at) / Fold change /veh RHOB (11743442_s_at) / RFU RGS16 (11720943_a_at) / Fold change /veh RGS16 (11720943_a_at) / RFU RGS16 (11720944_at) / Fold change /veh RGS16 (11720944_at) / RFU, VPS4B / Fold change vs veh, VPS4B / RFU, CREB1 / Fold change vs veh, CREB1 / RFU, DNAJC13 / Fold change vs veh, DNAJC13 / RFU, GNAQ / Fold change vs veh, GNAQ / RFU, CDK5R1 / Fold change vs veh, CDK5R1 / RFU, ZRANB3 / Fold change vs veh, ZRANB3 / RFU, CUL4A / Fold change vs veh, CUL4A / RFU, CCNY / Fold change vs veh, CCNY / RFU, UFL1 / Fold change vs veh, UFL1 / RFU, COG3 / Fold change vs veh, COG3 / RFU, DIAPH2 / Fold change vs veh, DIAPH2 / RFU, SKA2 / Fold change vs veh, SKA2 / RFU, AFF3 / Fold change vs veh, AFF3 / RFU, LMF1 / Fold change vs veh, LMF1 / RFU, IPO11 / Fold change vs veh, IPO11 / RFU, DFFB / Fold change vs veh, DFFB / RFU, FOXP1 / Fold change vs veh, FOXP1 / RFU, CARD8 / Fold change vs veh, CARD8 / RFU, STRN3 / Fold change vs veh, STRN3 / RFU, ADK / Fold change vs veh, ADK / RFU, RASSF2 / Fold change vs veh, RASSF2 / RFU, WIPF1 / Fold change vs veh, WIPF1 / RFU, LARP1B / Fold change vs veh, LARP1B / RFU, RASA1 / Fold change vs veh, RASA1 / RFU, RB1 / Fold change vs veh, RB1 / RFU, PPFIA1 / Fold change vs veh, PPFIA1 / RFU, MAT2A / Fold change vs veh, MAT2A / RFU, CCT5 / Fold change vs veh, CCT5 / RFU, WDR92 / Fold change vs veh, WDR92 / RFU, CUX1 / Fold change vs veh, CUX1 / RFU, TTC7A / Fold change vs veh, TTC7A / RFU, TMEM135 / Fold change vs veh, TMEM135 / RFU, DEPTOR / Fold change vs veh, DEPTOR / RFU, CPM / Fold change vs veh, CPM / RFU, DNAJB6 / Fold change vs veh, DNAJB6 / RFU, CACNA2D3 / Fold change vs veh, CACNA2D3 / RFU, DTX4 / Fold change vs veh, DTX4 / RFU, TFCP2 / Fold change vs veh, TFCP2 / RFU, GMCL1 /// GMCL1P1 / Fold change vs veh, GMCL1 /// GMCL1P1 / RFU, AEBP2 / Fold change vs veh, AEBP2 / RFU, SNHG1 /// SNORD22 /// SNORD25 /// SNORD26 /// SNORD27 /// SNORD28 /// SNORD29 /// SNORD31 / Fold change vs veh, SNHG1 /// SNORD22 /// SNORD25 /// SNORD26 /// SNORD27 /// SNORD28 /// SNORD29 /// SNORD31 / Fold change (Aza/veh), C12orf56 (ProbeSet 11735607_a_at) / Fold change (ACY-1035/veh), C12orf56 (ProbeSet 11735607_a_at) / Fold change (Aza/veh), FGFR1OP (ProbeSet 11751329_s_at) / Fold change (ACY-1035/veh), FGFR1OP (ProbeSet 11751329_s_at) / Fold change (Aza/veh), VPS36 (ProbeSet 11739960_a_at) / Fold change (ACY-1035/veh), VPS36 (ProbeSet 11739960_a_at) / RFU SYPL1 (11715823_x_at) / Fold change /veh SYPL1 (11715823_x_at) / RFU IGFBP7 (11715501_s_at) / Fold change /veh IGFBP7 (11715501_s_at) / RFU REEP3 (11722064_at) / Fold change /veh REEP3 (11722064_at) / RFU IGLL1 (11728026_x_at) / Fold change /veh IGLL1 (11728026_x_at): dose or concentration left out as unconfirmed",
  "conditions": "ProbeSet 11730501_a_at; LIST D",
  "data": [
    {"compound": "Nc1ccc(-c2cccs2)cc1NC(=O)c1ccc2c(c1)cc(C1CC1)n2CCN1CCOCC1", "note": "[ACY-1035]", "values": [
      {"measurement": "RFU, CACNA2D3", "result": 202.11, "unit": "RFU"}
    ]}
  ]
}
